We go through ten compounds from patent US4063025A, “4-Substituted amino-α-aminomethylbenzyl alcohol derivatives” (Yamanouchi Pharmaceutical Co., Ltd., priority 1975, dated 1977).

The test system of one data set is guinea pig. Description: Anti asthmatic activity: protection from histamine-induced asthmatic dyspnea, subcutaneous (Parker et al.). In kind it is in vivo. The conditions noted are these: Cavia porcellus, sc, 0.5 h, read-out: anti-asthmatic activity ED50.
For the next data set, the target named is T1, β2 (Canis lupus familiaris, UniProt P54833).
T1 construct: from tissue; host or cells: airways of anesthetized mongrel dogs, in vivo
Nature of the data set: Bronchodilator activity, β2 action: histamine-induced increase in bronchial resistance, intraduodenal (Konzett and Rossler). As to conditions: dog, anesthetized dogs, histamine dihydrochloride 10 μg/Kg i.v., peak effect, read-out: β2 action i.d. ED50. It counts as in vivo, Mongorel dogs. As for the experimental part: a. Bronchodilator activity, B2 action
The experiments were carried out according to the method of Konzett and Rossler (Arch. exp. Path. Pharmakol., 195, 11-14 (1940)). Mongorel dogs were anesthetized with pentobarbital Na. Temporary increase in bronchial resistance, measured with transducer connected to a polygraph, were produced by histamine dihydrochloride, 10 μg/Kg injected rapidly intravenously at intervals of 30 min. The test samples were injected intraduodenally and the time-course of antihistamine activity of the sample (the inhibition rate (%) against the control) was obtained.
ED50 (μg/Kg) values of β-agonists were obtained from the dose response curve drawn according to the peak effect on each dose.

The test system of a further data set is β1. Description: Action on heart rate, β1 action, intraduodenal. It counts as in vivo, Mongorel dogs. The procedure:
b. Action on heartrate, β1 action.
Mongorel dogs were anesthetized with pentobarbital Na. Heart rate (HR) was recorded on polygraph. […] The time-course of ΔHR (the increased HR against the control) was obtained.
The dose response curve drawn according to the peak response on each dose and the ED25 beats/min. (μg/Kg), that is the dose of the sample producing 25 beats/min. increase in heart rate was obtained from the curve.

Another data set concerns β1 /β2. Nature of the data set: Broncho-selectivity (ratio of β1/β2). It counts as in vivo, Mongorel dogs. As to conditions: intraduodenal, anesthetized dogs; from ED25 heart rate and ED50 bronchodilator. The text has this:
The broncho-selectivity was obtained by the following equation. [formula]

For data set [1] the following is noted: cited from earlier work.
[2] abbreviates: subcutaneous, 30 min. prior to spasmogen (0.1% histamine dihydrochloride spray), guinea pig.

Each structure is given as a SMILES string. Where a name gives a salt, the structure may show the parent alone. Read-outs that look alike come from different tables or passages of the source.

T1 sequence (P54833 whole entry): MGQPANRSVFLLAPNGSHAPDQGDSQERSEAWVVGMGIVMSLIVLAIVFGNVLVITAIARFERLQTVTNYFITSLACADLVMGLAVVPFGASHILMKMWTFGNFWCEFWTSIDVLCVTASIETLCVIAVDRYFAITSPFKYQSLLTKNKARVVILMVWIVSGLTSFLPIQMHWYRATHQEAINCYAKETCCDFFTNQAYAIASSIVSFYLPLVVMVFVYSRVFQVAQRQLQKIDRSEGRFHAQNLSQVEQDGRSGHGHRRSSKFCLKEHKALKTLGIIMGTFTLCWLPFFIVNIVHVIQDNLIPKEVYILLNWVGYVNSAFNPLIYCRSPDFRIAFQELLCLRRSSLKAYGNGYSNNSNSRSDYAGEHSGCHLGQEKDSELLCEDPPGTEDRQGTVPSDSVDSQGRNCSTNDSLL
Description for guinea pig: The experiments were carried out according to the method of Parker et al., (J. Pharmacol. Exptl. Therap., 118, 359-364 (1956)). A guinea pig was placed in a 11 liters glass chamber and exposed to the spasmogen by means of a nebulizer. […] Samples were administered subcutaneously to animals 30 min. prior the application of the spasmogen.
ED50 was calculated by the method of Litchfield-Wilcoxon (J. Pharmacol. Exptl. Therap., 96, 99-113 (1949) using 4-8 groups and one group consists of 4-8 of guinea pig.

Consider `COC(=O)Nc1c(Cl)cc(C(O)CNC(C)(C)C)cc1Br` (stereo not drawn) [Ex. 18, 3-bromo-5-chloro-4-methoxycarbonylamino-α-(tert-butylaminomethyl)-benzyl alcohol 1/2 fumarate], for which, in the data set with guinea pig (setting [2]), the ED50 (as a rule, the dose that gives a 50% effect, or the effect in half of the subjects) was 0.063 mg/kg.
Same read-out and setting: next, `COCCOC(=O)Nc1c(Cl)cc(C(O)CNC(C)(C)C)cc1Cl` (stereo not drawn) [Ex. 14, 3,5-dichloro-4-(2-methoxyethoxy)carbonylamino-α-(tert-butylaminomethyl)benzyl alcohol hydrochloride]: 0.032 mg/kg; `CC(C)OC(=O)Nc1c(Cl)cc(C(O)CNC(C)(C)C)cc1Cl` (stereo not drawn) [Ex. 12, 3,5-dichloro-4-isopropoxycarbonylamino-α-(tert-butylaminomethyl)benzyl alcohol]: 0.032 mg/kg; `COC(=O)Nc1ccc(C(O)CNC(C)(C)C)cc1Cl` (stereo not drawn) [Ex. 23, 3-chloro-4-methoxycarbonylamino-α-(N-tert-butylaminomethyl)benzyl alcohol]: 0.063 to 0.125 mg/kg.
`CC(C)(C)NCC(O)c1cc(Cl)c(N)c(Cl)c1` (stereo not drawn) [NAB 365, 1-(4-amino-3,5-dichlorophenyl)-2-tert-butylamino ethanol, reference compound]: the ED50 came to 0.49 mg/kg in the data set on guinea pig and 12.3 µg/kg at β2. The “β1 action i.d. ED25 beats/min” value in the data set with β1 (intraduodenal, anesthetized dogs, dose producing 25 beats/min. increase in heart rate) came to 5.7 µg/kg. For the same compound, the “broncho-selectivity (Ratio of β1 /β2)” value with β1 /β2 amounted to 0.46. In addition, in data set [1] (in words), the “bronchodilator activity by oral administration” value is given as “strong bronchodilator activity”. Moreover, the “bronchodilator activity, times stronger than Isoproterenol” value in data set [1] (oral administration, versus Isoproterenol) is on record as “about 500 times”. The “bronchodilator activity, times stronger than Salbutamol” value in data set [1] (oral administration, versus Salbutamol) is “about 100 times”.
For `CCNc1c(Cl)cc(C(O)CNC(C)(C)C)cc1Cl.Cl` (stereo not drawn) [Ex. 6, 3,5-dichloro-4-ethylamino-α-(tert-butylaminomethyl)-benzyl alcohol mono-hydrochloride], in the data set with guinea pig, the ED50 lay in the range of 0.125 to 0.25 mg/kg.
Turning to `CCOC(=O)Nc1c(Cl)cc(C(O)CNC(C)(C)C)cc1Cl.Cl` (stereo not drawn) [Ex. 10, 3,5-dichloro-4-ethoxycarbonylamino-α-(tert-butylaminomethyl)-benzyl alcohol hydrochloride], at β2, the ED50 worked out at 4.5 µg/kg. The “β1 action i.d. ED25 beats/min” value in the data set on β1 (dog, in vivo) is 19.5 µg/kg. In the data set on β1 /β2, the “broncho-selectivity (Ratio of β1 /β2)” value is reported as 4.3.
Take `CC(C)(C)NCC(O)c1cc(Cl)c(NC(=O)OCc2ccccc2)c(Cl)c1.Cl` (stereo not drawn) [Ex. 13, 3,5-dichloro-4-benzyloxycarbonylamino-α-(tert-butylaminomethyl)benzyl alcohol hydrochloride]: in the data set with guinea pig (setting [2]), the ED50 amounted to 0.125 mg/kg.
The same measure, in the same setting: next, `CNC(=O)Nc1c(Cl)cc(C(O)CNC(C)(C)C)cc1Cl` (stereo not drawn) [Ex. 15, 3,5-dichloro-4-methylcarbamoylamino-α-(tert-butylaminomethyl)benzyl alcohol]: 0.125 to 0.25 mg/kg; `COC(=O)Nc1c(Br)cc(C(O)CNC(C)(C)C)cc1Br` (stereo not drawn) [Ex. 8, 3,5-dibromo-4-methoxycarbonylamino-α-(tert-butylaminomethyl)benzyl alcohol]: 0.125 mg/kg.
